Numbers after ± are expanded uncertainties.
Experiment: xn = mol fraction of the nth substance listed
Conditions: 101.3 kPa, Liquid; for viscosity: Capillary tube (Ostwald / Ubbelohde) method

CC(O)CO (centres undefined) [1,2-propanediol] + O
Conditions	mass density, 298.15 K [kg/m3]	mass density, 308.15 K [kg/m3]	mass density, 318.15 K [kg/m3]	speed of sound, 298.15 K [m/s]	speed of sound, 308.15 K [m/s]	speed of sound, 318.15 K [m/s]	viscosity, 298.15 K [mPa·s]	viscosity, 308.15 K [mPa·s]	viscosity, 318.15 K [mPa·s]
x2 = 0.044	1033.39 ± 0.43	1026.01 ± 0.41	1017.94 ± 0.39	1511.4 ± 6.3	1502.9 ± 6.2	1451.7 ± 6.1	41.25 ± 0.2	23.03 ± 0.12	–
x2 = 0.0987	1034.15 ± 0.43	1026.76 ± 0.41	1018.71 ± 0.39	1518.3 ± 6.3	1509.5 ± 6.3	1458.8 ± 6.1	38.41 ± 0.18	21.43 ± 0.12	–
x2 = 0.1484	1034.84 ± 0.42	1027.45 ± 0.4	1019.41 ± 0.38	1523 ± 6.3	1513.1 ± 6.3	1463.2 ± 6.1	35.74 ± 0.17	19.93 ± 0.11	–
x2 = 0.2498	1036.3 ± 0.42	1028.92 ± 0.4	1020.89 ± 0.37	1531.6 ± 6.3	1524.5 ± 6.3	1476.1 ± 6.2	30.2 ± 0.14	16.8 ± 0.098	–
x2 = 0.3494	1037.8 ± 0.41	1030.43 ± 0.39	1022.37 ± 0.37	1551.3 ± 6.4	1541.8 ± 6.3	1495.1 ± 6.2	24.83 ± 0.12	13.77 ± 0.088	–
x2 = 0.4494	1039.24 ± 0.41	1031.91 ± 0.39	1023.79 ± 0.36	1581.6 ± 6.5	1565.2 ± 6.4	1520.3 ± 6.3	19.71 ± 0.11	10.9 ± 0.08	–
x2 = 0.5029	1039.87 ± 0.4	1032.59 ± 0.38	1024.44 ± 0.36	1602.9 ± 6.5	1581.4 ± 6.5	1537.6 ± 6.3	17.14 ± 0.096	9.465 ± 0.077	5.202 ± 0.068
x2 = 0.5499	1040.27 ± 0.4	1033.05 ± 0.38	1024.88 ± 0.36	1622.2 ± 6.6	1598.4 ± 6.5	–	15 ± 0.09	8.274 ± 0.075	4.639 ± 0.068
x2 = 0.5597	1040.33 ± 0.4	1033.12 ± 0.38	–	1626.9 ± 6.6	1602.2 ± 6.5	–	14.56 ± 0.089	8.034 ± 0.074	4.528 ± 0.068
x2 = 0.6501	1040.2 ± 0.39	1033.19 ± 0.37	–	1660.5 ± 6.7	1640 ± 6.6	–	10.84 ± 0.079	5.979 ± 0.07	3.576 ± 0.066
x2 = 0.7499	1037.73 ± 0.38	1031.14 ± 0.36	–	1687.6 ± 6.8	1672.3 ± 6.7	–	7.287 ± 0.072	4.049 ± 0.066	2.675 ± 0.065
x2 = 0.85	1030.31 ± 0.35	1024.53 ± 0.34	–	1676.8 ± 6.7	1660.9 ± 6.7	–	4.325 ± 0.067	2.473 ± 0.064	1.864 ± 0.064
x2 = 0.9003	1023.26 ± 0.33	1018.14 ± 0.31	–	1642.7 ± 6.6	1628.3 ± 6.6	–	3.049 ± 0.065	1.81 ± 0.064	1.462 ± 0.064
x2 = 0.9115	1021.26 ± 0.32	1016.3 ± 0.31	–	1632.5 ± 6.6	1618.4 ± 6.6	–	2.782 ± 0.065	1.673 ± 0.064	1.37 ± 0.063
x2 = 0.9154	1020.51 ± 0.32	1015.63 ± 0.31	–	1627.5 ± 6.6	1614.8 ± 6.6	–	2.692 ± 0.065	1.626 ± 0.064	1.338 ± 0.063
x2 = 0.927	1018.16 ± 0.31	1013.47 ± 0.3	–	1614.3 ± 6.6	1603.4 ± 6.5	–	2.425 ± 0.064	1.491 ± 0.064	1.242 ± 0.063
x2 = 0.9367	1016.02 ± 0.31	1011.51 ± 0.29	–	1602.1 ± 6.5	1593.2 ± 6.5	–	2.208 ± 0.064	1.379 ± 0.063	1.16 ± 0.063
x2 = 0.9504	1012.69 ± 0.3	1008.45 ± 0.28	–	1582.9 ± 6.5	1578 ± 6.4	–	1.907 ± 0.064	1.227 ± 0.063	1.043 ± 0.063
x2 = 0.9551	1011.46 ± 0.29	1007.32 ± 0.28	–	1577.5 ± 6.4	1572.6 ± 6.4	–	1.806 ± 0.064	1.177 ± 0.063	1.003 ± 0.063
x2 = 0.96	1010.13 ± 0.29	1006.1 ± 0.27	–	1570.2 ± 6.4	1566.9 ± 6.4	–	1.701 ± 0.064	1.124 ± 0.063	0.96 ± 0.063
x2 = 0.9696	1007.36 ± 0.28	1003.55 ± 0.27	–	1554.1 ± 6.4	1555.5 ± 6.4	–	1.501 ± 0.064	1.023 ± 0.063	0.876 ± 0.063
x2 = 0.9797	1004.21 ± 0.27	1000.65 ± 0.26	–	1535.9 ± 6.3	1543.3 ± 6.3	–	1.294 ± 0.063	0.919 ± 0.063	0.784 ± 0.063
x2 = 0.9902	1000.65 ± 0.26	997.36 ± 0.26	–	1518 ± 6.3	1530.7 ± 6.3	–	1.083 ± 0.063	0.815 ± 0.063	0.688 ± 0.063
x2 = 0.9923	999.9 ± 0.26	996.67 ± 0.27	–	1513.6 ± 6.2	1528.2 ± 6.3	–	1.041 ± 0.063	0.794 ± 0.063	0.668 ± 0.063
x2 = 0.9948	998.99 ± 0.26	995.83 ± 0.27	–	1508.4 ± 6.2	1525.2 ± 6.3	–	0.992 ± 0.063	0.769 ± 0.063	0.645 ± 0.063
